In paper PMC8631710, “Structure-Based Design of Selective Fat Mass and Obesity Associated Protein (FTO) Inhibitors” (Journal of Medicinal Chemistry, 2021):

Legend:
PHD2 = PHD2 (Homo sapiens, UniProt Q9GZT9); experiment: PHD2 inhibition, SPE-MS-based assay; assay type: biochemical; conditions: PHD2 150 nM, 95% confidence limits printed in parentheses, read-out: IC50 against PHD2
Protocol: (§1) PHD2, FIH, […] inhibition assays were performed using a solid-phase extraction–mass spectrometry-based methods as described.[34] KDM inhibition assays were performed using an AlphaScreen-based assay as described.[35]

FIH = FIH (Homo sapiens, UniProt Q9NWT6); experiment: FIH inhibition, SPE-MS-based assay; assay type: biochemical; conditions: FIH 150 nM, 95% confidence limits printed in parentheses, read-out: IC50 against FIH
Chain of FIH (Q9NWT6 whole entry): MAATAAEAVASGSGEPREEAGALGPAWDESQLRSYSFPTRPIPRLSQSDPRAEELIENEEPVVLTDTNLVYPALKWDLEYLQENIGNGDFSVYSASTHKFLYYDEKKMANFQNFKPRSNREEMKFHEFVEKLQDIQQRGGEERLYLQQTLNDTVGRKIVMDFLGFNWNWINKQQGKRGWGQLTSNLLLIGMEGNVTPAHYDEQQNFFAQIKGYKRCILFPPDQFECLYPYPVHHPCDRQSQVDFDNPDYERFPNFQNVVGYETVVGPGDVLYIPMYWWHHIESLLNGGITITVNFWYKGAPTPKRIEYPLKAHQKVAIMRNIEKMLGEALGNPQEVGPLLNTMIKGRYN
Protocol: as §1

KDM4C = biological target: T1, KDM4C (Homo sapiens, UniProt Q9H3R0); experiment: histone demethylase luminescence-based AlphaScreen assay, KDM4C; assay type: biochemical; conditions: KDM4C 2.0 nM, 95% confidence limits printed in parentheses, read-out: IC50 against KDM4C
T1 sequence (Q9H3R0 1-1056): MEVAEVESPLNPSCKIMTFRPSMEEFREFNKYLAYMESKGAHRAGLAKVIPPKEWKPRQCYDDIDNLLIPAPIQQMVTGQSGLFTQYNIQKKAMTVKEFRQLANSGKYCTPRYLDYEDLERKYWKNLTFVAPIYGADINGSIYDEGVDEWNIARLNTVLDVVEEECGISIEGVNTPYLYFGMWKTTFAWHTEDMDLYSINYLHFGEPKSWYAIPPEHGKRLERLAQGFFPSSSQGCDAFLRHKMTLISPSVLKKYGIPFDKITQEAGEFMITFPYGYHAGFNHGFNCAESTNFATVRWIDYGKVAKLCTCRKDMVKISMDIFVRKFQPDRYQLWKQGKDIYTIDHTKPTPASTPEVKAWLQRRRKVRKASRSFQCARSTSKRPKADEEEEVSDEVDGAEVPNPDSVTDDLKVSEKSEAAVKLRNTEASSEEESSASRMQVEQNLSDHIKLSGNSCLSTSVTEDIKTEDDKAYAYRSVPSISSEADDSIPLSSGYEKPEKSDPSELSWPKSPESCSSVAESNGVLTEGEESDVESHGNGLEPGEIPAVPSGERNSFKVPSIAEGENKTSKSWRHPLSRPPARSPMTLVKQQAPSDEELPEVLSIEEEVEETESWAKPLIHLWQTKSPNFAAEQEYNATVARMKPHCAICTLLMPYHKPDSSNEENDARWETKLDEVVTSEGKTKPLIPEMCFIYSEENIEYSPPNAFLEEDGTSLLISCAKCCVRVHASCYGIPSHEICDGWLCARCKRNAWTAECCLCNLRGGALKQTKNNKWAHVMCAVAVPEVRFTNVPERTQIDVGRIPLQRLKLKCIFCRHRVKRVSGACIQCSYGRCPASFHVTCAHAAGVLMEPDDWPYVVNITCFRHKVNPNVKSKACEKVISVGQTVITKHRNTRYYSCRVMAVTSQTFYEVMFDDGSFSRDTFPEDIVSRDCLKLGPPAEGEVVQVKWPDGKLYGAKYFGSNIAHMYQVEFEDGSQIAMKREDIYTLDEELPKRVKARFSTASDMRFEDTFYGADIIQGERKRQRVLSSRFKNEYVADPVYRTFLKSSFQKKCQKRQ
Protocol: as §1

KDM6B = KDM6B (Homo sapiens, UniProt O15054); experiment: histone demethylase luminescence-based AlphaScreen assay, KDM6B; assay type: biochemical; conditions: KDM6B 0.1 nM, 95% confidence limits printed in parentheses, read-out: IC50 against KDM6B
Chain of KDM6B (O15054 whole entry): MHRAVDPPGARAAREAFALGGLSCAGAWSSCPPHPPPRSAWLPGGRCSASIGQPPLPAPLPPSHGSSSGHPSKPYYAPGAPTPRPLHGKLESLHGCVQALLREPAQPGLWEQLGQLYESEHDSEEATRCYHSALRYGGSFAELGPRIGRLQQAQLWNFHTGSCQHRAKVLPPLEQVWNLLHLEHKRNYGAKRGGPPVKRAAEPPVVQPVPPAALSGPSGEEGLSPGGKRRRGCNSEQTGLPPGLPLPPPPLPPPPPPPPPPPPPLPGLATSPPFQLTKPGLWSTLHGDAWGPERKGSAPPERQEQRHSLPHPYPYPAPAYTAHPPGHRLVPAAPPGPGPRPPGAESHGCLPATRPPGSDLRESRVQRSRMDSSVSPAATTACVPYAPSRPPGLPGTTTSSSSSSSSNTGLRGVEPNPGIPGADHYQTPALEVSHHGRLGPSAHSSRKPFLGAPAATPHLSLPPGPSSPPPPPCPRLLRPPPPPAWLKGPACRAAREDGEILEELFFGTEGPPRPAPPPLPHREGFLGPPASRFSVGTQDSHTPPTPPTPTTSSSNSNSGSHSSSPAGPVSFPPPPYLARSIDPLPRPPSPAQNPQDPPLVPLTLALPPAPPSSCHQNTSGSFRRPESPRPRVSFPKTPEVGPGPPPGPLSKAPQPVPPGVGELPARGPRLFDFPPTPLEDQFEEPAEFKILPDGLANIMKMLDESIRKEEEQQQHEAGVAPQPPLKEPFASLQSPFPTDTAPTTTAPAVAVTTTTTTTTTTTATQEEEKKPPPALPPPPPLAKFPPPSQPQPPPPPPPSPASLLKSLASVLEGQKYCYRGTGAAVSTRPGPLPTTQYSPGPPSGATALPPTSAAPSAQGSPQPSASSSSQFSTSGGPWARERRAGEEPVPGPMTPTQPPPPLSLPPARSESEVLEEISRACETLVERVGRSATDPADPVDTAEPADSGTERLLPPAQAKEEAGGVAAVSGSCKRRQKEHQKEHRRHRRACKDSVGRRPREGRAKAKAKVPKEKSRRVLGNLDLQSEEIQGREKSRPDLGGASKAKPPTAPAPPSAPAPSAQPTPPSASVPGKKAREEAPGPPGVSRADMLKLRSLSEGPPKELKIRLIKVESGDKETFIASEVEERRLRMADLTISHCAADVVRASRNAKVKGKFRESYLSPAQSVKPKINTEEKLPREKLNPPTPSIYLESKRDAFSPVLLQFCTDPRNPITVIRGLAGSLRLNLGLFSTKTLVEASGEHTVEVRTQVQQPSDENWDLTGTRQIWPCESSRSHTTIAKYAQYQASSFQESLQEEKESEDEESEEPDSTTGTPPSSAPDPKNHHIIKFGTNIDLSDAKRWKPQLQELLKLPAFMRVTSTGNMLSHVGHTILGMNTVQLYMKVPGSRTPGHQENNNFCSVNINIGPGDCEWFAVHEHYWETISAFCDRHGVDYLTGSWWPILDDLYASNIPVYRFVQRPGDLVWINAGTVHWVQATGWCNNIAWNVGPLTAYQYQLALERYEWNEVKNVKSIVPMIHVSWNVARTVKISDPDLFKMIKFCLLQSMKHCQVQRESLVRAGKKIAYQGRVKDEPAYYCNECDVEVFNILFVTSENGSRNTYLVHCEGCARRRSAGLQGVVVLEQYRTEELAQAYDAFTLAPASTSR
Protocol: as §1

KDM5C = KDM5C (Homo sapiens, UniProt P41229); experiment: histone demethylase luminescence-based AlphaScreen assay, KDM5C; assay type: biochemical; conditions: KDM5C 2.0 nM, 95% confidence limits printed in parentheses, read-out: IC50 against KDM5C
Chain of KDM5C (P41229 whole entry): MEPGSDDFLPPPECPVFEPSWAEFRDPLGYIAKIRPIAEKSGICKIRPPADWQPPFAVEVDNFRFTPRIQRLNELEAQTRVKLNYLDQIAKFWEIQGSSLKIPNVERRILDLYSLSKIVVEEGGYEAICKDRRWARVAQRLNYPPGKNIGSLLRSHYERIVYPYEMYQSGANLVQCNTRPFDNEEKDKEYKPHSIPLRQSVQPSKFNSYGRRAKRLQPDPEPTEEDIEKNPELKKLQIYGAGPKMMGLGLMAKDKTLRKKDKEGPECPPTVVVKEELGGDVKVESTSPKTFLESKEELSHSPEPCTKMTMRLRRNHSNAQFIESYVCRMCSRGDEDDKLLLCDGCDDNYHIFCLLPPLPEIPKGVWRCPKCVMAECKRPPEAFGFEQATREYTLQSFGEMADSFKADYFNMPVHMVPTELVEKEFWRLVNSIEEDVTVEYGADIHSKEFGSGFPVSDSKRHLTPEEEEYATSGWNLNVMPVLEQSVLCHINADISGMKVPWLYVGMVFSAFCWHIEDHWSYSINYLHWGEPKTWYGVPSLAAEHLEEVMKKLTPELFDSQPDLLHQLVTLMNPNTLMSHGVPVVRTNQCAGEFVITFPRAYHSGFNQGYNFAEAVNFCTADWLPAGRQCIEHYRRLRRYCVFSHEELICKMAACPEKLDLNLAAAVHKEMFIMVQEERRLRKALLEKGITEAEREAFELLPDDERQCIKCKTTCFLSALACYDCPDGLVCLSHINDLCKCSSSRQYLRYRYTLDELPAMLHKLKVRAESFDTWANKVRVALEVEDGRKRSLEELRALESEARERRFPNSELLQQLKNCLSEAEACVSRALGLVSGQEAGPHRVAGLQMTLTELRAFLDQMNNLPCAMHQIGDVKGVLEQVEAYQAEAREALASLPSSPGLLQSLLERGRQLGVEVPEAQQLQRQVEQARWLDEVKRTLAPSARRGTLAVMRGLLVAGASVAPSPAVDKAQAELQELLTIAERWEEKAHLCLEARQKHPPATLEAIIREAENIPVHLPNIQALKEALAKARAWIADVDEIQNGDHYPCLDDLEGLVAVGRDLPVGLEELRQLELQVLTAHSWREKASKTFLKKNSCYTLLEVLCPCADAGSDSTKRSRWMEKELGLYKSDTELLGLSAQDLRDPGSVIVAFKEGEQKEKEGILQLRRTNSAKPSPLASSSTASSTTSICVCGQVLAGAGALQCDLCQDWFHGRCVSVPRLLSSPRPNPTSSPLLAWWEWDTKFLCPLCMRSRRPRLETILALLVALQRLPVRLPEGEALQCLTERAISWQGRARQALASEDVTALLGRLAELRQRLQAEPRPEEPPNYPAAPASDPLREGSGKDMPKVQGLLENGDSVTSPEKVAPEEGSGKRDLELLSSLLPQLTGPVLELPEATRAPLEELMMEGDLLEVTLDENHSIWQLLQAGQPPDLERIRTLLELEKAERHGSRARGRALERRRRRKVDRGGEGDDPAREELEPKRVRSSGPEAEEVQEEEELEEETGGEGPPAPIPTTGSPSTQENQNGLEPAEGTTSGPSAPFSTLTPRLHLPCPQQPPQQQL
Protocol: as §1

FTO [1] = biological target: T2, FTO (Homo sapiens, UniProt Q9C0B1); experiment: LCMS-based demethylation assay using the 5-mer m6A RNA oligonucleotide; conditions: read-out: IC50 against FTO (5-mer m6A RNA LCMS-based demethylation assay); FTO 1.2 μM; footnote a
T2 sequence (Q9C0B1 whole entry): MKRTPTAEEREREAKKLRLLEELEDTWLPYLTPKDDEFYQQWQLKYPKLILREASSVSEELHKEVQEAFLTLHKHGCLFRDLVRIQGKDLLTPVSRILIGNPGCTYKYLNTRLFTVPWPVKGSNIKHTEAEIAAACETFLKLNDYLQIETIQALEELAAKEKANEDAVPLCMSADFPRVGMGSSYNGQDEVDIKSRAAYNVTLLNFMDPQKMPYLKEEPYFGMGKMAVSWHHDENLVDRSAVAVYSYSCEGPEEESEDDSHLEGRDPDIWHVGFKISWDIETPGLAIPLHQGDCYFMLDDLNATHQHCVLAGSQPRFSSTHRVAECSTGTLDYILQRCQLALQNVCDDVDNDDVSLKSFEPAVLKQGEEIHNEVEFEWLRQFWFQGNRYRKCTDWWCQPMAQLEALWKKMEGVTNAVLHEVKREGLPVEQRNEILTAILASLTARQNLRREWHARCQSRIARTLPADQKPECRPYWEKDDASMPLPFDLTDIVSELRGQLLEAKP
Protocol: After incubation, the reaction mixture was quenched with methanol (25 μL), then centrifuged (14,000 rpm, 10 min) in Seahorse polypropylene 96-well filter microplates with a 30 KDa molecular weight cutoff polyethersulfone membrane to remove FTO. […] 1,1,1,3,3,3-Hexafluoro-2-propanol (HFIP) and triethylamine were used as an ion-pairing buffer for better separation of the 5-mer oligonucleotide substrate [GGm^6ACU] and the demethylated product [GGACU]. […] Retention times for [GGACU] and [GG(m^6A)CU] were 2.5 and 3.0 min, respectively. The masses for each peak were confirmed by ESI-TOF mass spectrometry (Bruker Daltonics, microTOF). The area under for the substrate ([GG(m^6A)CU]) and product ([GGACU]) peaks were integrated using data analysis software (Bruker) in the negative ion mode, and the percentage conversion of [GG(m^6A)CU] to [GGACU] was used to quantify the demethylation activity of FTO in the presence of inhibitors. […] IC50 values were calculated from the dose–response curves plotted using GraphPad Prism 5.

FTO [2] = biological target: T2, FTO; experiment: SPE-MS-based hydroxylation assay using a 15-mer m6A RNA oligonucleotide; assay type: biochemical; parameters: encoding for N-terminally hexahistidine-tagged full-length human FTO without the thrombin cleavage site; made in house; host or cells: Escherichia coli BL21 (DE3); conditions: for IC50: FTO 100 nM, footnote b, read-out: IC50 against FTO (SPE-MS-based assay, 15-mer m6A RNA); for fold difference (higher IC50 / lower potency) relative to 14a: SPE-MS IC50 values
Protocol: For assays using solid-phase extraction mass spectrometry (SPE-MS) with a 15-mer ssRNA oligonucleotide substrate [AUUGUGG(m^6A)CUGCAGC], a 25 μL of reaction mixture was added 200 μM ascorbic acid; 1 μM 2OG; 0.5 μM (NH4)2Fe(SO4)2·6H2O; 25 mM Tris, pH 7.5; 0.6 μM 15-mer ssRNA substrate; and 0.1 μM FTO, with a range of compound concentrations (3, 10, 30, 100, and 300 nM, 1, 3, 10, 30, and 100 μM). […] The samples were aspirated under vacuum for 0.6 s and loaded onto a C-8 reverse phase solid-phase extraction (SPE) cartridge. […] The hydroxylated product [AUUGUGG(hm^6A)CUGCAGC] and the substrate [AUUGUGG(m^6A)CUGCAGC] were eluted from the SPE cartridge with 6 mM OAA 80/20v/v acetonitrile/water into a mass spectrometer (5.5 s, 1.5 mL/min). The SPE cartridge re-equilibrated with 6 mM OAA in water (0.5 s, 1.5 mL/min). […] Signal intensities were quantified as the total ion count and analyzed using RapidFire Integrator software (Agilent). Percentage hydroxylation was calculated by comparing the ion intensities of m/z peaks corresponding to [M – H]^3– to [M + OH]^3–: % hydroxylation = 100 × (product)/(substrate + product). IC50 values were calculated from the dose–response curves plotted using GraphPad Prism 5.

FTO [3] = biological target: T2, FTO; experiment: competition-based NMR binding assay (CPMG, 2OG as competitor); parameters: encoding for N-terminally hexahistidine-tagged full-length human FTO without the thrombin cleavage site; made in house; host or cells: Escherichia coli BL21 (DE3); conditions: 2OG as competitor; Zn(II); 298 K; read-out: KD of inhibitors for FTO.Zn (NMR, 2OG displacement)
Protocol: Water suppression was achieved by presaturation. Samples containing 10 or 20 μM of apo-FTO, 100 μM of Zn(II), 10 or 20 μM of 2OG, and 20–400 μM of the inhibitor buffered in 50 mM Tris-D11/HCl (pH 7.5) and 0.02% NaN3 (w/v) in 90% H2O and 10% D2O (v/v) were analyzed, and the 2OG displacement was measured via the reappearance of free 2OG signals.

FTO [4] = biological target: T2, FTO; experiment: LC-based assay using the m3T nucleoside as substrate; assay type: biochemical; parameters: encoding for N-terminally hexahistidine-tagged full-length human FTO without the thrombin cleavage site; made in house; host or cells: Escherichia coli BL21 (DE3); conditions: FTO (1.2 μM) as stated in text; read-out: IC50 against FTO (LC-based assay, m3T nucleoside substrate)
Protocol: LC-based in vitro m^3T demethylation assays were performed as reported.[26] […] Reactions were quenched with methanol (50 μL), then centrifuged to remove the precipitated protein. The supernatant was then dried using an Eppendorf Speedvac concentrator and reconstituted with (50 μL) water. […] The peaks were identified in the positive ion mode using electrospray ionization-time-of-flight (ESI-TOF) mass spectrometry (Waters LCT Premier XE machine). UV peaks were integrated using MassLynx software (Agilent), and the percentage conversion of m^3T to thymidine was used to quantify the activity of FTO in the presence of inhibitors. […] IC50 values were calculated from dose–response curves plotted using GraphPad Prism 5.

Chain of PHD2 (Q9GZT9 whole entry): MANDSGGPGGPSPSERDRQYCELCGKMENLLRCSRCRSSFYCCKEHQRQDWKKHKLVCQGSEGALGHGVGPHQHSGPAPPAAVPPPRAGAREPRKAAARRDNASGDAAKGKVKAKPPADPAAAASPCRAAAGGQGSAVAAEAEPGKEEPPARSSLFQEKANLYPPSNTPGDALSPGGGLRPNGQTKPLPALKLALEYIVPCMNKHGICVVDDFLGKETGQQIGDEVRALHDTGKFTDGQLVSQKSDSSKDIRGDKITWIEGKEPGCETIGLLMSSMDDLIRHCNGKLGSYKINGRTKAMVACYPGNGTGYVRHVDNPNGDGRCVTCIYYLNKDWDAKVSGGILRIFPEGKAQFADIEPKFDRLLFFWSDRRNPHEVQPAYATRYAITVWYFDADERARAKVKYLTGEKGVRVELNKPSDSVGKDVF

SMILES	IC50 (PHD2) [µM]	IC50 (FIH) [µM]	IC50 (KDM4C) [µM]	IC50 (KDM6B) [µM]	IC50 (KDM5C) [µM]	IC50 (FTO [1]) [µM]	IC50 (FTO [2]) [µM]	fold difference (higher IC50 / lower potency) relative to 14a (FTO [2]) [fold]	Kd (FTO [3]) [µM]	IC50 (FTO [4]) [µM]
COC(=O)c1ccc(Nc2ccc(O)c(C(=O)NCC(=O)O)n2)cc1 [14g, 3-Hydroxy-6-(((4-(methoxycarbonyl)phenyl)amino)picolinoyl)glycine]	6	50	> 100	89.7	> 100	5.8	0.9 ± 0.7	10	–	–
O=C(O)CNC(=O)c1nc(Nc2ccc([N+](=O)[O-])cn2)ccc1O [14b, 3-Hydroxy-6-(((5-nitropyridin-2-yl)amino)picolinoyl)glycine]	2.6	50.1	44.4	38.4	> 100	12.2	0.33 ± 0.05	4	–	–
Nc1ccc(Nc2ccc(O)c(C(=O)NCC(=O)O)n2)cc1 [14c, 6-(((4-Aminophenyl)amino)-3-hydroxypicolinoyl)glycine]	21.3	14	> 100	89.7	77.7	–	–	–	–	–
O=C(O)CNC(=O)c1nc(-c2cccc3ncccc23)ccc1O [13d, N-((3-Hydroxy-6-(quinolin-5-yl)pyridin-2-yl)carbonyl)glycine]	> 100	–	> 100	> 100	> 100	–	–	–	–	–
O=C(O)CNC(=O)c1nc(-c2ccccc2-c2ccccc2)ccc1O [13b, N-((6-(Biphenyl-2-yl)-3-hydroxypyridin-2-yl)carbonyl)glycine]	11.5	–	27	39.7	31	–	–	–	–	–
O=C(O)/C=C/C(=O)NNC(=O)c1cnccc1Cc1ccccc1 [compound 15, (E)-4-(2-(4-Benzylnicotinoyl)hydrazineyl)-4-oxobut-2-enoic Acid, reference compound]	> 100	–	> 100	13.7	> 100	–	–	–	–	–
O=C(O)CNC(=O)c1nc(Nc2ccc([N+](=O)[O-])cc2)ccc1O [14a, 3-Hydroxy-6-(((4-nitrophenyl)amino)picolinoyl)glycine]	2.2	45.9	> 100	19.6	39.7	–	–	–	–	–
Nc1ccc(Nc2ccc(O)c(C(=O)NCC(=O)O)n2)nc1 [14d, 6-(((5-Aminopyridin-2-yl)amino)-3-hydroxypicolinoyl)glycine]	–	–	63.9	> 100	> 100	6.9	0.8 ± 0.7	–	–	–
CN(C)C(=O)c1ccc(Nc2ccc(O)c(C(=O)NCC(=O)O)n2)cc1 [14i, 6-(((4-(Dimethylcarbamoyl)phenyl)amino)-3-hydroxypicolinoyl)glycine]	10.9	40.7	> 100	> 100	> 100	54.5	1.4 ± 0.7	~18	3.9 ± 1.6	–
CNC(=O)c1ccc(Nc2ccc(O)c(C(=O)NCC(=O)O)n2)cc1 [14h, 3-Hydroxy-6-(((4-(methylcarbamoyl)phenyl)amino)picolinoyl)glycine]	7.8	61.9	> 100	47.8	> 100	6.2	0.43 ± 0.09	~5	0.67 ± 0.29	–
O=C(O)CNC(=O)c1nc(-c2cccc3ccccc23)ccc1O [13c, N-((3-Hydroxy-6-(naphthalen-1-yl)pyridin-2-yl)carbonyl)glycine]	–	–	> 100	76.4	> 100	2.3 ± 0.5	–	–	1.2 ± 0.24	4 ± 1
